Molecules are shown by their SMILES. Marks after values point to notes of the source that are not given here.

A short description of one series: Measurement of LogP values by HPLC on reversed phase columns (EEC directive 79/831 Annex V.A8). It is filed as physicochemical.
Details: not given
Here is the method:
The abbreviations and numerations of the substituent positions used in the context of the present invention and in the following Tables are explained in detail in the section Examples hereinafter. Also, the LogP values indicated in the following Tables are explained in detail in the section Examples hereinafter. In case LogP values for different diastereoisomers of a specific compound are […], said LogP values are […] by a “+”. […] Measurement of LogP values was performed according to EEC directive 79/831 Annex V.A8 by HPLC (High Performance Liquid Chromatography) on reversed phase columns with the following methods: […] Lambda-max-values were determined using UV-spectra from 200 nm to 400 nm and the peak values of the chromatographic signals
Take `CCC(=O)Nc1nsc(C(=O)NCc2ccc(F)cc2OC)c1Cl` [I-815]: the LogP is 2.10[a]. Turning to `CC(C)N(Cc1ccc(Cl)cc1Cl)C(=O)c1cc(N)ns1` [I-937], the LogP is 3.08[a].

As to `Nc1nsc(C(=O)NCC2CCCCC2(F)F)c1Cl` (stereo not drawn) [I-1294], the LogP was 2.07[a]. Regarding `Cc1c(N)nsc1C(=O)NCc1ccccc1C(F)F` [I-157], the LogP was 1.74[a]. The same measure, in the same setting: then `Nc1nsc(C(=O)N(Cc2ccc(Cl)cc2Cl)CC2CC2)c1Cl` [I-212], with 3.74[a]. Still for that read-out and setting: then `O=C(c1cc(N(Cc2ccccc2)Cc2ccccc2)ns1)N(Cc1cc(Cl)ccc1F)C1CC1` [I-992], with 5.59[a]; and `COc1cccc(CNC(=O)c2snc(N)c2Cl)c1` [I-022], with 1.75[a]. Same read-out and setting: then `Nc1cc(C(=O)N(Cc2cc(Cl)cc(C(F)(F)F)c2)C2CC2)sn1` [I-970], with 3.11[a]; and `COc1ccc(CNc2nsc(C(=O)NC(C)c3nccs3)c2Cl)cc1` (stereo not drawn) [I-1317], with 2.82[a]; and `C[C@H](NC(=S)c1snc(NC2CC2)c1Cl)C1CCCCC1` [I-428], with 4.84[a].

On to `Nc1nsc(C(=O)Nc2ccc(Cl)cc2)c1Cl` [I-878], for which the LogP is 2.51[a]. On the same count and under the same terms, then `Nc1nsc(C(=O)Nc2ccccc2)c1Cl` [I-852], with 1.83[a]; and `Nc1nsc(C(=O)NCc2cccc(F)c2)c1Cl` [I-026], with 1.84[a]. With `CC1CCc2ccccc2N1C(=O)c1snc(N)c1Cl` (stereo not drawn) [II-101], the “LogP [a]” value is 2.48 and the “LogP [b]” value worked out at 2.39. On to `Nc1cc(C(=O)NCc2ccc(Cl)cc2F)sn1` [I-179], for which the LogP is 1.82[a]. With `COc1ccc(CNc2nsc(C(=O)NCc3cccc(C(C)C)n3)c2Cl)cc1` [I-1274], the LogP is 2.94[a]. As to `COc1ccc(CNc2nsc(C(=O)N3CCc4ccccc43)c2Cl)cc1` [II-069], the “LogP [a]” value is listed as 3.83 and the “LogP [b]” value was 3.76. For `COc1ccc(CNc2nsc(C(=O)NC(C#N)c3cccc(Cl)c3Cl)c2Cl)cc1` (stereo not drawn) [I-1335], the LogP was 4.05[a].

Regarding `Nc1nsc(C(=O)NCC2CCCCC2)c1O` [I-797], the LogP was 2.12[a]. Same read-out and setting: then `O=C(NCc1cccc(Cl)c1Cl)c1cc(N(Cc2ccccc2)Cc2ccccc2)ns1` [I-313], with 5.01[a]. As to `CC(C)(C)C(=O)Nc1nscc1Cl` [Z-A-004], the “LogP [a]” value was 1.55^[a].

Turning to `COc1ccc(CNc2nsc(C(=O)NC(C)c3cccnc3)c2Cl)cc1` (stereo not drawn) [I-1253], the LogP was 1.63[a].

For the compound `Nc1cc(C(=O)NCc2ccccc2Cl)sn1` [I-282], the LogP was 1.69[a]. In the case of `Nc1nsc(C(=O)NCC2CCC(C(F)(F)F)CC2)c1Br` (stereo not drawn) [I-840], the LogP was 2.68[a].

Turning to `O=C(NCc1ccc(Cl)cc1Cl)c1cc(N(Cc2ccccc2)Cc2ccccc2)ns1` [I-323], the LogP is 5.17[a]. Same read-out and setting: then `Nc1nsc(C(=O)NCc2cccc(F)c2F)c1Cl` [I-120], with 1.91[a].

`CCS(CC)=Nc1nsc(C(=O)NCC2CCCCC2)c1Cl` [II-052]: the “LogP [a]” value is 2.00^[a]. As to `COc1c(N)nsc1C(=O)NCc1ccc(Cl)cc1` [I-737], the LogP was 1.98[a]. Turning to `CS(C)=Nc1nsc(C(=O)NCC2CCCCC2)c1Cl` [II-032], the “LogP [a]” value was 1.82^[a]. With `COc1ccc(CNc2nsc(C(=O)NCc3ccc(OC(F)(F)F)cc3)c2Cl)cc1` [I-1242], the LogP is 4.15[a]. On the same count and under the same terms, then `Nc1nsc(C(=O)NCC2(Br)CCCCC2)c1F` [I-1358], with 2.56[a]; and `COc1ccc(CNc2nsc(C(=O)N(C3CC3)C(C)c3cc(Cl)cc(Cl)c3)c2Cl)cc1` (stereo not drawn) [I-928], with 5.36[a]. As to `COc1ccc(CNc2nsc(C(=O)NCc3noc(C)n3)c2Cl)cc1` [I-1270], the LogP was 2.47[a].

For the compound `Nc1nsc(C(=O)NCC2CCC(C(F)(F)F)CC2)c1Cl` (stereo not drawn) [I-141], the LogP was 2.71[a].

With `O=C(NCc1ccc(F)c(F)c1F)c1snc(N=S2CCCC2)c1F` [II-078], the “LogP [a]” value is 1.55^[a].

As for `Nc1nsc(C(=O)NCC2CCCCC2)c1C(F)F` [I-417], the LogP was 2.66[a].

With `COc1ccc(CNc2nsc(C(=O)N3c4ccccc4CCC3C)c2Cl)cc1` (stereo not drawn) [II-100], the “LogP [a]” value is reported as 4.14 and the “LogP [b]” value amounted to 4.09. Take `CCCC(c1ccccc1)N(C(=O)c1snc(NCc2ccc(OC)cc2)c1Cl)C1CC1` (stereo not drawn) [I-899]: the LogP is 5.25[a]. Turning to `Cc1cc(C)c(CN(C(=O)c2snc(N)c2Cl)C2CC2)cc1C` [I-151], the LogP is 3.39[a]. `O=C(NC1CCCC1c1ccccc1)c1snc(NC(=O)C2CC2)c1Cl` (stereo not drawn) [I-297]: the LogP was 2.86[a]. On the same count and under the same terms, then `C#CCNc1nsc(C(=O)NCc2ccc(Cl)cc2)c1Cl` [I-581], with 2.97[a]. Turning to `CON(CC1CCCCC1)C(=O)c1snc(N)c1Cl` [I-543], the LogP was 3.04[a]. Same read-out and setting: then `Nc1nsc(C(=O)NCC2(F)CCCC2)c1Cl` [I-826], with 1.81[a]; and `CC1(C)CC1N(Cc1ccc(Cl)cc1Cl)C(=O)c1snc(N)c1Cl` (stereo not drawn) [I-214], with 4.12[a]; and `Nc1nsc(C(=O)NCc2ccc(C(F)F)cc2)c1Cl` [I-133], with 1.91[a].

Consider `COc1c(N)nsc1C(=O)NCC1CCCC1` [I-736], for which the LogP was 1.87[a]. Same read-out and setting: then `CC(NC(=O)c1snc(N)c1Cl)c1ccccc1Cl` (stereo not drawn) [I-142], with 2.46[a].

As for `CCCCCn1cc(CNC(=O)c2snc(NCc3ccc(OC)cc3)c2Cl)c(C)n1` [I-1259], the LogP was 3.57[a].

On to `CCc1ccccc1CN(C(=O)c1snc(N)c1Cl)C1CC1` [I-153], for which the LogP is 3.04[a]. Same read-out and setting: then `COc1ccc(CN(C)c2nsc(C(=O)NCc3ccccc3F)c2Cl)cc1` [I-088], with 4.21[a]; and `COc1ccc(CNc2nsc(C(=O)NCc3ccnc(OC)n3)c2Cl)cc1` [I-1316], with 2.56[a].

As for `Nc1nsc(C(=O)NCC2(F)CCCCC2)c1Br` [I-828], the LogP was 2.15[a]. On to `Nc1cc(C(=O)N(Cc2c(F)cccc2Cl)C2CC2)sn1` [I-909], for which the LogP is 2.28[a]. On the same count and under the same terms, then `O=CNc1nsc(C(=O)NCc2ccc(F)cc2F)c1Cl` [I-467], with 1.89[a]; and `Nc1nsc(C(=O)NCc2cc(F)c(F)cc2F)c1Cl` [I-677], with 2.03[a]; and `Nc1nsc(C(=O)NCc2cccc(Cl)c2)c1Cl` [I-021], with 2.15[a].

On to `C[C@@H]1CCCC[C@H]1NC(=O)c1snc(N)c1Br` (relative stereo) [I-838], for which the LogP was 2.34[a]. Consider `O=C(O)c1snc(N(Cc2ccccc2)Cc2ccccc2)c1Cl` [E-VIII-005], for which the “LogP [a]” value was 3.75^[a]. Regarding `O=C(NCC1CCOC1)c1snc(Cl)c1Cl` (stereo not drawn) [E-II-007], the “LogP [a]” value was 1.84^[a]. As to `COc1ccc(CNc2nsc(C(=O)NCc3cccc(Cl)c3C)c2Cl)cc1` [I-1243], the LogP is 4.20[a].

Consider `COc1ccc(CNc2nsc(C(=O)NC3CCCCCC3)c2Cl)cc1` [I-1245], for which the LogP is 4.27[a]. Turning to `COc1ccc(CNc2nsc(C(=O)NC(C)c3cccc4ccccc34)c2Cl)cc1` (stereo not drawn) [I-1275], the LogP is 4.32[a]. On to `Nc1nsc(C(=S)NCC2CCCCC2)c1Cl` [I-913], for which the LogP is 3.37[a]. With `Nc1cc(C(=O)NCc2ccccc2F)sn1` [I-305], the LogP is 1.41[a]. As for `O=C(c1cc(N(Cc2ccccc2)Cc2ccccc2)ns1)N(Cc1ccc(Cl)cc1Cl)C1CC1` [I-940], the LogP is 6.30[a]. Same read-out and setting: then `C[C@H]1CCCC[C@H]1CNC(=O)c1snc(N)c1I` (relative stereo) [I-1541], with 2.67[a]; and `COc1ccc(CNc2nsc(C(=O)NCC3(C)CCCO3)c2Cl)cc1` (stereo not drawn) [I-1236], with 3.06[a]. The same measure, in the same setting: then `COc1ccc(CNc2nsc(C(=O)NCc3cscc3C)c2Cl)cc1` [I-1201], with 3.61[a]; and `Cc1cc(F)ccc1CNC(=O)c1snc(NC(=O)C(F)(F)F)c1Cl` [I-816], with 2.72[a].

`CCC(C)C(C)N(C(=O)c1snc(NCc2ccc(OC)cc2)c1Cl)C1CC1` (stereo not drawn) [I-894]: the LogP was 4.85[a]. The same measure, in the same setting: then `C[C@H](NC(=O)c1snc(N)c1C1CC1)C1CCCCC1` [I-271], with 2.68[a]. For the compound `CCOc1c(N)nsc1C(=O)NC1CCCCC1` [I-727], the LogP is 2.14[a]. As to `O=C(NC1CCc2ccccc21)c1snc(Cl)c1Cl` (stereo not drawn) [E-II-020], the “LogP [a]” value amounted to 3.70 and the “LogP [b]” value came out at 3.63. Take `COc1ccc(CNc2nsc(C(=O)NCCCn3cccn3)c2Cl)cc1` [I-1194]: the LogP was 2.53[a]. The same measure, in the same setting: then `C#CCNc1nsc(C(=O)NCc2ccccc2F)c1Cl` [I-058], with 2.54[a]. In the case of `O=C(NC1CCCCC1)c1snc(N=C(c2ccccc2)c2ccccc2)c1Cl` [II-001], the “LogP [a]” value was 5.13^[a].

As for `COC(=O)Nc1nsc(C(=O)N[C@@H](C)C2CCCCC2)c1Cl` [I-108], the LogP was 2.84[a]. As to `CC(C)(C)OC(=O)Nc1nsc(C(=O)NCC2CCCCC2Cl)c1Cl` (stereo not drawn) [I-1571], the LogP was 3.53[a]. Regarding `COc1ccc(CNc2nsc(C(=O)N3CCCC3)c2Cl)cc1` [II-102], the “LogP [a]” value is 2.72 and the “LogP [b]” value is 2.66. For the compound `CC(=O)N(C(C)=O)c1nsc(C(=O)NCc2ccc(Cl)cc2)c1Cl` [I-571], the LogP is 2.99[a]. For `COc1ccc(CNc2nsc(C(=O)N(Cc3ccc(Cl)cc3Cl)CC3CC3)c2Cl)cc1` [I-935], the LogP is 5.45[a].

Staying with this series, now noted: HPLC LC-UV, acidic range, 0.1% formic acid in water and acetonitrile as eluent.
As for `CCOC(=O)c1snc(N(Cc2ccccc2)Cc2ccccc2)c1Br` [E-VII-008, ethyl 4-bromo-3-(dibenzylamino)-1,2-thiazole-5-carboxylate], the chromatographic logP was 5.8.

The values are drawn from US20190110476A1, “NOVEL ISOTHIAZOLAMIDES, PROCESSES FOR THEIR PREPARATION AND THEIR USE AS FUNGICIDES” (priority 2014, published 2019).
